Results as given in US11453633B2, “Production method for crystal of reduced coenzyme Q10 having excellent stability” (KANEKA CORPORATION, priority 2018, dated 2022).

Legend:
[1] = Reduced coenzyme Q10 concentration dissolved in the liquid phase of the crystallization mixture, by HPLC (Example 11); format: physicochemical; conditions: 99.5% ethanol
Experimental: The inside of a 500 mL separable flask (made of borosilicate glass) was replaced with nitrogen, and 40.0 g of reduced coenzyme Q10 and 360 g of 99.5% ethanol were then added thereto (reduced coenzyme Q10 concentration: 10 wt. %). Thereafter, the obtained raw material mixture was warmed to 42° C. while stirring with a stirring blade (power required for stirring: 0.1 kw/m^3) to obtain a homogeneous solution. This solution was cooled to 35° C., and thereafter, 0.4 g (1 wt. %) of reduced coenzyme Q10 crystals comprising reduced coenzyme Q10 Form II crystals were added as seed crystals to the solution.
The mixture obtained after the addition of the seed crystals was kept at 35° C. for 15 hours to precipitate crystals. Thereafter, the mixture was cooled to 25° C. at a constant cooling rate of −2° C./hour over 5 hours, and was then cooled to 10° C. at a constant cooling rate of −10° C./hour over 1.5 hours, to further precipitate crystals. After the temperature had reached 10° C., the mixture was filtered for solid-liquid separation. The obtained crystal was dried under reduced pressure at 35° C. for 10 hours to obtain a reduced coenzyme Q10 Form II crystal (Form II rate: 100%; recovery rate: 97%).
In the present experiment, the liquid phase of the mixture was sampled immediately before addition of the seed crystals (at 0 hour), and then at 3 hours, 6 hours, 9 hours, 12 hours, 15 hours (so far, at 35° C.), 17.5 hours (30° C.), 20 hours (25° C.), 20.5 hours (20° C.), and 21.5 hours (10° C.) after the addition of the seed crystals. The concentration (wt. %) of reduced coenzyme Q10 dissolved in the liquid phase sample was measured according to high performance liquid chromatography.
Conditions for the high performance liquid chromatography, by which the reduced coenzyme Q10 concentration was measured, are shown below.
Column: SYMMETRY C18 (manufactured by Waters); 250 mm (length), 4.6 mm (inner diameter)
Mobile phase: C2H5OH:CH3OH=4:3 (v:v)
Detection wavelength: 210 nm
Retention time of reduced coenzyme Q10: 9.1 min.

[2] = compared with oxidized coenzyme Q10; cited from earlier work
[3] = compared with the conventional reduced coenzyme Q10 Form I crystal; cited from earlier work

SMILES | Reduced coenzyme Q10 concentration ([1]; crystallization time 0 h (immediately before addition of the seed crystals), 35° C.) | Reduced coenzyme Q10 concentration ([1]; crystallization time 3 h, 35° C.) | Reduced coenzyme Q10 concentration ([1]; crystallization time 6 h, 35° C.) | Reduced coenzyme Q10 concentration ([1]; crystallization time 9 h, 35° C.) | Reduced coenzyme Q10 concentration ([1]; crystallization time 12 h, 35° C.) | Reduced coenzyme Q10 concentration ([1]; crystallization time 15 h, 35° C.) | Reduced coenzyme Q10 concentration ([1]; crystallization time 17.5 h, 30° C.) | Reduced coenzyme Q10 concentration ([1]; crystallization time 20 h, 25° C.) | Reduced coenzyme Q10 concentration ([1]; crystallization time 20.5 h, 20° C.) | Reduced coenzyme Q10 concentration ([1]; crystallization time 21.5 h, 10° C.) | oral absorbability [2] | stability of the crystal form [3]
COc1c(O)c(C)c(C/C=C(\C)CC/C=C(\C)CC/C=C(\C)CC/C=C(\C)CC/C=C(\C)CC/C=C(\C)CC/C=C(\C)CC/C=C(\C)CC/C=C(\C)CCC=C(C)C)c(O)c1OC [reduced coenzyme Q10] | 10.0 wt % | 9.9 wt % | 9.6 wt % | 9.2 wt % | 8.5 wt % | 7.2 wt % | 3.1 wt % | 1.5 wt % | 0.8 wt % | 0.3 wt % | higher oral absorbability than that of oxidized coenzyme Q10 | –
COc1c(O)c(C)c(C/C=C(\C)CC/C=C(\C)CC/C=C(\C)CC/C=C(\C)CC/C=C(\C)CC/C=C(\C)CC/C=C(\C)CC/C=C(\C)CC/C=C(\C)CCC=C(C)C)c(O)c1OC [reduced coenzyme Q10 Form II crystal, reduced coenzyme Q10] | – | – | – | – | – | – | – | – | – | – | – | much more stable
